Test results as given in patent US20240350488A1, “METHODS OF TREATING SWI/SNF DEREGULATED CANCERS” (Fred Hutchinson Cancer Center, priority 2023, published 2024).

Tests used:
[1] = tested on: PDX2 (ARID1A medium); test: Pre-clinical trial of patient derived xenograft treated with HHT; type: in vivo, mouse; settings: ARID1A medium model; HHT 0.7 mg/kg twice daily by oral gavage
Excerpt: (§1) Arid1a^LoxP/LoxP (Jackson Laboratory), ROSA-LSL-Yfp^KI/KI (Jackson Laboratory), and UBC-Cre^ERT2 (Jackson Laboratory). eEF2K^−/− animals were kindly provided by Alexey G. Ryazanov (Rutgers University). UBC-Cre^ERT2;ROSA-LSL-Yfp^KI/KI;Arid1a^LoxP/LoxP animals (mixed background) were bred to Eef2k^−/− animals (C57BL/6) for one generation to produce progeny heterozygous at all loci (ROSA-LSL-Yfp^KI/+;Arid1a^LoxP/+; eEF2K^+/−) with or without UBC-Cre^ERT2. Heterozygous animals without UBC-Cre^ERT2 were backcrossed once more to ROSA-LSL-Yfp^KI/KI;Arid1a^LoxP/LoxP animals to reintroduce homozygosity at the ARID1A and ROSA-LSL-Yfp, while maintaining heterozygosity at the Eef2k locus (ROSA-LSL-Yfp^KI/KI; Arid1a^LoxP/LoxP; Eef2K^+/−; with and without UBC-Cre^ERT2). […] For survival studies, the body weight of the mouse was recorded and monitored every two days for the duration of the survival trial.
(§2) Tumor pieces (1×1×1 mm) were implanted into the flank of 4-6 weeks old NOD-SCID γ IL-2 mice. Xenografts were measured every 2 days and tumor volume was calculated using the formula (L×W×W)/2, where L is the length of the tumor and W its width. […]

[2] = tested on: PDX1 (ARID1A low); test: as above; type: in vivo, mouse; settings: ARID1A low model; HHT 0.7 mg/kg twice daily by oral gavage
Excerpt: as §1, §2

## COC(=O)C[C@](O)(CCCC(C)(C)O)C(=O)O[C@@H]1C(OC)=C[C@]23CCCN2CCc2cc4c(cc2[C@H]13)OCO4 [HHT, homoharringtonine]
[1]
  decrease in tumor growth: 35.9%
[2]
  decrease in tumor growth: 59.3%
